Experimental data: patent US9173422B2, “Compositions including pyruvate for companion animals and methods of use thereof” (Hill's Pet Nutrition, Inc., priority 2009, dated 2015)

Test: Canine pyruvate study blood chemistry
Assay type: in vivo
Settings: dogs fed pyruvate compared to similar foods containing fish oil
Description: 40 dogs were fed a control food for 28 days prior to start of the study. At day 0, dogs were allotted to one of three experimental foods, control+fish oil, control+pyruvate, or control+fish oil and pyruvate. Dogs were fed the experimental foods for 45 days. [table]

In the case of `CC(=O)C(=O)O` [pyruvate, calcium pyruvate], the blood urea nitrogen was “reduced” and the creatinine was “reduced”.
